Results published in patent US20220387608A1, “ADRENOMEDULLIN-ANALOGUES FOR LONG-TERM STABILIZATION AND THEIR USE” (Bayer Aktiengesellschaft, priority 2019, published 2022).
Positions of bridges follow the written chain, without caps; N, C: chain ends. Residues, ends and D or L forms follow the SMILES beside them.

Molecular target: T1, AM1R (Homo sapiens, UniProt O60895+Q16602)
T1 construct: EYFP; ECFP; expressed in transfected cells; host or cells: HEK-293 (transient co-transfection)
Assay: Activity determination in vitro: cAMP/CRE-luciferase reporter assay in HEK293 cells transiently co-transfected with CLR and RAMP2
Assay type: cell-based
Details: for Emax: HEK293, normalized to [G14]ADM(14-52); for EC50: HEK293 with CLR/RAMP2, CRE-luciferase, 3 h stimulation
Protocol: (1a) Activity Determination of Adrenomedullin Analogues in vitro
Cell Culture HEK-293 cells (human embryonic kidney cells) were cultured in Ham's F-12/DMEM (1/1; v/v) containing 15% FCS under humidified atmosphere at 37° C. and 5% CO2 in 75 cm^2 cell culture flasks.
Cells were cultured in 75 cm^2 flasks to 70-80% confluency. 45 μl Metafectene® Pro was diluted in 900 ρl Ham's F-12/DMEM (1/1; v/v) and incubated for 20 min at room temperature. 9 μg plasmid containing DNA of CLR fused to EYFP and 3 μg plasmid containing DNA of RAMP2 fused to ECFP were dissolved in 900 μl Ham's F-12/DMEM (1/1; v/v). The plasmid solution was mixed with the Metafectene® Pro solution and incubated for 25 min at room temperature. Medium was removed from the cells and replaced by 6 m1 Ham's F-12/DMEM (1/1; v/v) containing 15% FCS. After addition of transfection solution the cells were incubated for 3 h under humidified atmosphere at 37° C. and 5% CO2. For the second transfection 45 μl Metafectene® Pro was diluted in 900 μl Ham's F-12/DMEM (1/1; v/v) and incubated for 20 min at room temperature. 12 μg of pGL4.29[Luc2P/CRE/Hygro] plasmid containing DNA for the luciferase reporter gene luc2P (with CRE promotor region) were dissolved in 900 μl Ham's F-12/DMEM (1/1; v/v). The plasmid solution was mixed with the Metafectene® Pro solution and incubated for 25 min at room temperature. Medium was removed from the cells and replaced by 6 m1 Ham's F-12/DMEM (1/1; v/v) containing 15% FCS. After addition of transfection solution, the cells were incubated under humidified atmosphere at 37° C. and 5% CO2 over night.
For coating of 96-well-plates, 50 μl of a poly-D-lysine solution in DPBS (0.1 mg/ml) were pipetted in each well and incubated for 40 min. After removal of poly-D-lysine, each well was washed with 50 μl DPBS. Transiently transfected cells were detached from the cell culture flask by removal of the medium, 2-fold washing with 5 m1 DPBS and resuspending in 40 m1 Ham's F-12/DMEM (1/1; v/v) containing 15% FCS. 90,000 to 120,000 cells in 150 μl Ham's F-12/DMEM (1/1; v/v) containing 15% FCS were seeded per well and the plates were incubated under humidified atmosphere at 37° C. and 5% CO2 over night.
For each ligand, a serial dilution with eight different concentrations was prepared using Ham's F^12/DMEM (1/1; v/v). Before stimulation, the medium on the cells was replaced by 100 μl Ham's F^12/DMEM (1/1; v/v) and the plates were incubated for 1 h under humidified atmosphere at 37° C. and 5% CO2. For stimulation, the medium was removed and the cells were incubated for 3 h in 80 μl of ligand-solution under humidified atmosphere at 37° C. and 5% CO2. In addition 80 μl of a 5 μM forskolin solution in Ham's F-12/DMEM (1/1; v/v) was used as a positive control and 80 μl of Ham's F-12/DMEM (1/1; v/v) as a negative control. Each concentration and the controls were tested as triplicates.
After 3 h of stimulation, the solutions were removed and the cells were washed with 50 μl of Ham's F-12/DMEM (1/1; v/v) perwell. After 10 m incubation in 30 μl of Ham's F-12/DMEM (1/1; v/v) at room temperature, 30 μl of luciferase-solution (ONE-Glo™ Luciferase Assay System) was added and the luminescence was directly measured using an Infinite M200 (Tecan).
Data analysis of the luminescence measurement was carried out with GraphPad Prism 5. Therefore, the measured luminescence values of each plate were first corrected on the base of the respective average of forskolin stimulation. Afterwards they were normalized to [G14]ADM(14-52), which was used as standard peptide in every assay. After correction and normalization, data was analyzed using non-linear regression giving dose-response curves for each tested ligand.

T1 sequence (Q16602 23-461): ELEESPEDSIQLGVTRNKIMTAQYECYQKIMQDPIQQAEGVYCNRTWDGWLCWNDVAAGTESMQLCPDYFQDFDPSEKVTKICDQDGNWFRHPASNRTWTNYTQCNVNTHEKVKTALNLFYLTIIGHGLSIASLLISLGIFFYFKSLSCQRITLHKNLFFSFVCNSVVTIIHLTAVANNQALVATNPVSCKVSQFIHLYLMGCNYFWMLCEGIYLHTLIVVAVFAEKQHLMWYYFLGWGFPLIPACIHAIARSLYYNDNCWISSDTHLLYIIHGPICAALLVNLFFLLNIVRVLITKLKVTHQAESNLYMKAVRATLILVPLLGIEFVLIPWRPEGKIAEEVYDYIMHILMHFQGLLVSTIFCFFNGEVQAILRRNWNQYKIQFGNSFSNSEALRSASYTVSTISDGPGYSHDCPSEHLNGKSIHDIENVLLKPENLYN
T1 sequence (O60895 43-175): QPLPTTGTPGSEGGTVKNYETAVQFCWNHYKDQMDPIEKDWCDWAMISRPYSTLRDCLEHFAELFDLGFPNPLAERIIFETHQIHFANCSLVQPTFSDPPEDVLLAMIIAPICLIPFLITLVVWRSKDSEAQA

Emax [%] | EC50 [nM] | SMILES
102 ± 3 | 3.9 | CC[C@H](C)[C@H](NC(=O)[C@H](CCC(N)=O)NC(=O)[C@H](Cc1c[nH]cn1)NC(=O)[C@H](C)NC(=O)[C@H](CC(C)C)NC(=O)[C@H](CCCCN)NC(=O)[C@H](CCC(N)=O)NC(=O)[C@@H](NC(=O)[C@@H](NC(=O)[C@@H]1CSSC[C@H](NC(=O)CNC(=O)CN)C(=O)N[C@@H](CCCNC(=N)N)C(=O)N[C@@H](Cc2ccccc2)C(=O)NCC(=O)N[C@@H]([C@@H](C)O)C(=O)N1)[C@@H](C)O)C(C)C)C(=O)N[C@@H](Cc1ccc(O)cc1)C(=O)N[C@@H](CCC(N)=O)C(=O)N[C@@H](Cc1ccccc1)C(=O)N[C@H](C(=O)N[C@@H](CC(=O)O)C(=O)N[C@@H](CCCCN)C(=O)N[C@@H](CC(=O)O)C(=O)N[C@@H](CCCCN)C(=O)N[C@@H](CC(=O)O)C(=O)N[C@@H](CC(N)=O)C(=O)N[C@H](C(=O)N[C@@H](C)C(=O)N1CCC[C@H]1C(=O)N[C@H]1CCCCNC(=O)C[C@@H](C(=O)N2CCC[C@H]2C(=O)N[C@@H](CCC(N)=O)C(=O)NCC(=O)N[C@@H](Cc2ccc(O)cc2)C(N)=O)NC(=O)[C@H]([C@@H](C)CC)NC(=O)[C@H](CCCCN)NC(=O)[C@H](CO)NC1=O)C(C)C)[C@@H](C)O [Example 1, ((4R,7S,13S,16S,19R)-19-(2-(2-aminoacetamido)acetamido)-13-benzyl-16-(3-guanidinopropyl)-7-((R)-1-hydroxyethyl)-6,9,12,15,18-pentaoxo-1,2-dithia-5,8,11,14,17-pentaazacycloicosane-4-carbonyl)-L-threonyl-ADM(23-43)-((2S,5S,8S,11S,18S)-5-(4-aminobutyl)-18-(λ^2-azaneyl)-8-((S)-sec-butyl)-2-(hydroxymethyl)-3,6,9,13,19-pentaoxo-1,4,7,10,14-pentaazacyclononadecane-11-carbonyl)-L-prolyl-ADM(50-52)] (H-GGCRFGTCTVQKLAHQIYQFTDKDKDNVAPKSKIDPQGY-NH2; disulfide 3-8; lactam 31-35)
91 ± 1 | 4.8 | CC[C@H](C)[C@H](NC(=O)[C@H](CCC(N)=O)NC(=O)[C@H](Cc1c[nH]cn1)NC(=O)[C@H](C)NC(=O)[C@H](CC(C)C)NC(=O)[C@H](CCCCN)NC(=O)[C@H](CCC(N)=O)NC(=O)[C@@H](NC(=O)[C@@H](NC(=O)[C@@H]1CSSC[C@H](NC(=O)CNC(=O)CN)C(=O)N[C@@H](CCCNC(=N)N)C(=O)N[C@@H](Cc2ccccc2)C(=O)NCC(=O)N[C@@H]([C@@H](C)O)C(=O)N1)[C@@H](C)O)C(C)C)C(=O)N[C@@H](Cc1ccc(O)cc1)C(=O)N[C@@H](CCC(N)=O)C(=O)N[C@@H](Cc1ccccc1)C(=O)N[C@H](C(=O)N[C@@H](CC(=O)O)C(=O)N[C@@H](CCCCN)C(=O)N[C@@H](CC(=O)O)C(=O)N[C@@H](CCCCN)C(=O)N[C@@H](CC(=O)O)C(=O)N[C@@H](CC(N)=O)C(=O)N[C@H](C(=O)N[C@@H](C)C(=O)N1CCC[C@H]1C(=O)N[C@H]1CC(=O)NCCCC[C@@H](C(=O)N2CCC[C@H]2C(=O)N[C@@H](CCC(N)=O)C(=O)NCC(=O)N[C@@H](Cc2ccc(O)cc2)C(N)=O)NC(=O)[C@H]([C@@H](C)CC)NC(=O)[C@H](CCCCN)NC(=O)[C@H](CO)NC1=O)C(C)C)[C@@H](C)O [Example 2, ((4R,7S,13S,16S,19R)-19-(2-(2-aminoacetamido)acetamido)-13-benzyl-16-(3-guanidinopropyl)-7-((R)-1-hydroxyethyl)-6,9,12,15,18-pentaoxo-1,2-dithia-5,8,11,14,17-pentaazacycloicosane-4-carbonyl)-L-threonyl-ADM(23-43)-((3S,6S,9S,12S,20S)-6-(4-aminobutyl)-12-(λ^2-azaneyl)-3-((S)-sec-butyl)-9-(hydroxymethyl)-2,5,8,11,14-pentaoxo-1,4,7,10,15-pentaazacycloicosane-20-carbonyl)-L-prolyl-ADM(50-52)] (H-GGCRFGTCTVQKLAHQIYQFTDKDKDNVAPDSKIKPQGY-NH2; disulfide 3-8; lactam 31-35)
93 ± 2 | 16 | CC[C@H](C)[C@H](NC(=O)[C@H](CCC(N)=O)NC(=O)[C@H](Cc1c[nH]cn1)NC(=O)[C@H](C)NC(=O)[C@H](CC(C)C)NC(=O)[C@H](CCCCN)NC(=O)[C@H](CCC(N)=O)NC(=O)[C@@H](NC(=O)[C@@H](NC(=O)[C@@H]1CSSC[C@H](NC(=O)CNC(=O)CN)C(=O)N[C@@H](CCCNC(=N)N)C(=O)N[C@@H](Cc2ccccc2)C(=O)NCC(=O)N[C@@H]([C@@H](C)O)C(=O)N1)[C@@H](C)O)C(C)C)C(=O)N[C@@H](Cc1ccc(O)cc1)C(=O)N[C@@H](CCC(N)=O)C(=O)N[C@@H](Cc1ccccc1)C(=O)N[C@H](C(=O)N[C@@H](CC(=O)O)C(=O)N[C@@H](CCCCN)C(=O)N[C@@H](CC(=O)O)C(=O)N[C@@H](CCCCN)C(=O)N[C@@H](CC(=O)O)C(=O)N[C@@H](CC(N)=O)C(=O)N[C@H](C(=O)N[C@@H](C)C(=O)N1CCC[C@H]1C(=O)N[C@H]1CCCCNC(=O)CC[C@@H](C(=O)N2CCC[C@H]2C(=O)N[C@@H](CCC(N)=O)C(=O)NCC(=O)N[C@@H](Cc2ccc(O)cc2)C(N)=O)NC(=O)[C@H]([C@@H](C)CC)NC(=O)[C@H](CCCCN)NC(=O)[C@H](CO)NC1=O)C(C)C)[C@@H](C)O [Example 3, ((4R,7S,13S,16S,19R)-19-(2-(2-aminoacetamido)acetamido)-13-benzyl-16-(3-guanidinopropyl)-7-((R)-1-hydroxyethyl)-6,9,12,15,18-pentaoxo-1,2-dithia-5,8,11,14,17-pentaazacycloicosane-4-carbonyl)-L-threonyl-ADM(23-43)-((2S,5S,8S,11S,20S)-5-(4-aminobutyl)-20-(λ^2-azaneyl)-8-((S)-sec-butyl)-2-(hydroxymethyl)-3,6,9,14,21-pentaoxo-1,4,7,10,15-pentaazacyclohenicosane-11-carbonyl)-L-prolyl-ADM(50-52)] (H-GGCRFGTCTVQKLAHQIYQFTDKDKDNVAPKSKIEPQGY-NH2; disulfide 3-8; lactam 31-35)
105 ± 5 | 17 | CC[C@H](C)[C@H](NC(=O)[C@H](CCC(N)=O)NC(=O)[C@H](Cc1c[nH]cn1)NC(=O)[C@H](C)NC(=O)[C@H](CC(C)C)NC(=O)[C@H](CCCCN)NC(=O)[C@H](CCC(N)=O)NC(=O)[C@@H](NC(=O)[C@@H](NC(=O)[C@@H]1CSSC[C@H](NC(=O)CNC(=O)[C@@H](N)CCCCNC(=O)CCCCCCCCCCCCCCCCC(=O)O)C(=O)N[C@@H](CCCNC(=N)N)C(=O)N[C@@H](Cc2ccccc2)C(=O)NCC(=O)N[C@@H]([C@@H](C)O)C(=O)N1)[C@@H](C)O)C(C)C)C(=O)N[C@@H](Cc1ccc(O)cc1)C(=O)N[C@@H](CCC(N)=O)C(=O)N[C@@H](Cc1ccccc1)C(=O)N[C@H](C(=O)N[C@@H](CC(=O)O)C(=O)N[C@@H](CCCCN)C(=O)N[C@@H](CC(=O)O)C(=O)N[C@@H](CCCCN)C(=O)N[C@@H](CC(=O)O)C(=O)N[C@@H](CC(N)=O)C(=O)N[C@H](C(=O)N[C@@H](C)C(=O)N1CCC[C@H]1C(=O)N[C@@H](CCCNC(=N)N)C(=O)N[C@@H](CO)C(=O)N[C@@H](CCCCN)C(=O)N[C@H](C(=O)N[C@@H](CO)C(=O)N1CCC[C@H]1C(=O)N[C@@H](CCC(N)=O)C(=O)NCC(=O)N[C@@H](Cc1ccc(O)cc1)C(N)=O)[C@@H](C)CC)C(C)C)[C@@H](C)O [Example 5, ((4R,7S,13S,16S,19R)-19-(2-((S)-2-amino-6-(17-carboxyoctadecanamido)hexanamido)acetamido)-13-benzyl-16-(3-guanidinopropyl)-7-((R)-1-hydroxyethyl)-6,9,12,15,18-pentaoxo-1,2-dithia-5,8,11,14,17-pentaazacycloicosane-4-carbonyl)-L-threonyl-ADM(23-52)]
